The test system of the test is diet-induced obese animals. The test is described as follows: Chronic administration by subcutaneous micro-osmotic pumps. The test is classed as in vivo, mice. The note with it: two weeks. On the procedure:
Chronic administration of peptide was evaluated using micro-osmotic pumps designed to deliver 0.5 μl/h (Alza Co.). Pumps were filled with peptide or vehicle and implanted subcutaneously in the intrascapular space in diet-induced obese animals. Mice were fed ad libitum and food intake and body weight were measured daily for two weeks. […] Cumulative body weight change (FIG. 2A) and cumulative food intake (FIG. 2B) with two-week treatment of NMU and NMS are shown.

We go through one substance from patent US20110301079A1, “NEUROMEDIN U RECEPTOR AGONISTS AND USES THEREOF” (Instituto di Ricerche di Biologia Molecolare P. Angeletti …, priority 2007, published 2011).

As to “H-ILQRGSGTAAVDFTKKDHTATWGRPFFLFRPRN-NH2 [NMS, reference compound]”, the “effect on food intake and body weight compared with NMU” value was “appeared to be greater than that observed for NMU”. Moreover, where the note is “cumulative change, FIG. 2A”, the body weight entry is “significantly reduced”. In addition, the food intake entry (cumulative, FIG. 2B) was “significantly reduced”.
